Patent US20250340551A1, “SMALL MOLECULE MODULATORS OF STAT6” (Gilead Sciences, Inc., priority 2024, published 2025)

Target: human STAT6 (Homo sapiens (Human), UniProt P42226)
Assay: Surface plasmon resonance assay (Biacore 8K, binding to immobilized STAT6)
Details: human STAT6 aa122-658, N-terminal His-tag, CM5 chip, 25° C.; geometric mean; read-out: STAT6 SPR Kd
In short: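 Run at 25° C with His-tagged STAT6 aa122-658 (insect-cell expressed) amine-coupled to a CM5 chip, reference-subtracted, in PBS-P+ with 2% DMSO. Multi-cycle kinetics: 60 sec. contact, up to 300 sec. dissociation. Affinity fitted from late report-point binding isotherms, with Rmax both free and fixed to theoretical 1:1.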

Chain of human STAT6 (P42226 122-658): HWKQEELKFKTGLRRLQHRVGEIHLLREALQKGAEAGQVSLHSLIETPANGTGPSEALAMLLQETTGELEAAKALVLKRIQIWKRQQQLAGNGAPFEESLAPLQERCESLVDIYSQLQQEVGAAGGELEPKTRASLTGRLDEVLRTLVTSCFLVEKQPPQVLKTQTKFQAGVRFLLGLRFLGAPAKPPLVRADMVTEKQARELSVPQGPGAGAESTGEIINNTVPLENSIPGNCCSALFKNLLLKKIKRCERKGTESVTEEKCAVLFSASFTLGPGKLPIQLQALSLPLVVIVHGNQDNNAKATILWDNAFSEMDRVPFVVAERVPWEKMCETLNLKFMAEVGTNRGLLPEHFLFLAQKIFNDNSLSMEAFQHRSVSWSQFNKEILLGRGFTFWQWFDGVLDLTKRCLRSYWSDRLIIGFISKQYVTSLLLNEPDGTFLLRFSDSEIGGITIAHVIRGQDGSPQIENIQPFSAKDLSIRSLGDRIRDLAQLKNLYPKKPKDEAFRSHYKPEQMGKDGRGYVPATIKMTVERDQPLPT

SMILES	Kd [nM]
CN(C)C(=O)c1ccc(C2CCN(Cc3cc4c(-c5cnc(N)c(N(C)C)c5)ccnc4n3C)CC2)cc1 [Example 1k47, 4-[1-[[4-[6-Amino-5-(dimethylamino)-3-pyridyl]-1-methyl-pyrrolo[2,3-b]pyridin-2-yl]methyl]-4-piperidyl]-N,N-dimethyl-benzamide]	1210
CN(C)C(=O)c1ccc(C2CCN(Cc3cc4c(-c5ccc(N)nc5OC(F)(F)F)ccnc4n3C)CC2)cc1 [Example 1k18, 4-[1-[[4-[6-Amino-2-(trifluoromethoxy)-3-pyridyl]-1-methyl-pyrrolo[2,3-b]pyridin-2-yl]methyl]-4-piperidyl]-N,N-dimethyl-benzamide]	153
C[C@@H](c1cc2c(-c3ccc(N)nc3C#N)ccnc2n1C)N1CC=C(c2ccc(C(=O)N(C)C)cc2)CC1 [Example 1af21, (S)-4-(1-(1-(4-(6-amino-2-cyanopyridin-3-yl)-1-methyl-1H-pyrrolo[2,3-b]pyridin-2-yl)ethyl)-1,2,3,6-tetrahydropyridin-4-yl)-N,N-dimethylbenzamide]	8660
CN(C)C(=O)c1ccc(C2CCN(Cc3cc4c(-c5cnc(N)cn5)ccnc4n3C)CC2)cc1 [Example 1k8, 4-[1-[[4-(5-Aminopyrazin-2-yl)-1-methyl-pyrrolo[2,3-b]pyridin-2-yl]methyl]-4-piperidyl]-N,N-dimethyl-benzamide]	457
[2H]C([2H])([2H])N(C(=O)c1ccc(C2=CCN(C(C)c3cc4c(-c5ccc(N)nc5C#N)ccnc4n3C)CC2)cc1)C([2H])([2H])[2H] (stereo in doubt) [Example 1af22, (R)-4-(1-(1-(4-(6-Amino-2-cyanopyridin-3-yl)-1-methyl-1H-pyrrolo[2,3-b]pyridin-2-yl)ethyl)-1,2,3,6-tetrahydropyridin-4-yl)-N,N-bis(methyl-d3)benzamide]	6600
Cc1nc(N)cnc1-c1ccnc2c1cc(CN1CCC(c3ccc(C(=O)N(C)C)cc3)CC1)n2C [Example 1k39, 4-[1-[[4-(5-Amino-3-methyl-pyrazin-2-yl)-1-methyl-pyrrolo[2,3-b]pyridin-2-yl]methyl]-4-piperidyl]-N,N-dimethyl-benzamide]	2280
Cc1cc(C(=O)N(C)C)ccc1C1CCN([C@H](C)c2cc3c(-c4ccc(N)nc4C#N)ccnc3n2C)CC1 [Example 1af28, (R)-4-(1-(1-(4-(6-amino-2-cyanopyridin-3-yl)-1-methyl-1H-pyrrolo[2,3-b]pyridin-2-yl)ethyl)piperidin-4-yl)-N,N,3-trimethylbenzamide]	5310
Cc1c(-c2ccnc3c2cc(CN2CCC(c4ccc(C(=O)N(C)C)cc4)CC2)n3C)cnc(N)c1C#N [Example 1k42, 4-[1-[[4-(6-Amino-5-cyano-4-methyl-3-pyridyl)-1-methyl-pyrrolo[2,3-b]pyridin-2-yl]methyl]-4-piperidyl]-N,N-dimethyl-benzamide]	731
Cc1cc(N)ncc1-c1ccnc2c1cc(CN1CCC(c3ccc(C(=O)N(C)C)cc3)CC1)n2C [Example 1k30, 4-[1-[[4-(6-Amino-4-methyl-3-pyridyl)-1-methyl-pyrrolo[2,3-b]pyridin-2-yl]methyl]-4-piperidyl]-N,N-dimethyl-benzamide]	62.1
[2H]C([2H])([2H])N(C(=O)c1ccc(C2=CCN(C(C)c3cc4c(-c5ccc(N)nc5C#N)ccnc4n3C)CC2)cc1)C([2H])([2H])[2H] (stereo in doubt) [Example 1af24, (S)-4-(1-(1-(4-(6-amino-2-cyanopyridin-3-yl)-1-methyl-1H-pyrrolo[2,3-b]pyridin-2-yl)ethyl)-1,2,3,6-tetrahydropyridin-4-yl)-N,N-bis(methyl-d3)benzamide]	51.3
CN(C)C(=O)c1ccc(C2CCN(Cc3cc4c(-c5cnc(N)c(C#N)c5)ccnc4n3C)CC2)cc1 [Example 1k21, 4-[1-[[4-(6-Amino-5-cyano-3-pyridyl)-1-methyl-pyrrolo[2,3-b]pyridin-2-yl]methyl]-4-piperidyl]-N,N-dimethyl-benzamide]	935
CC(=O)Nc1ccc(-c2ccnc3c2cc(CN2CCC(c4ccc(C(=O)N(C)C)cc4)CC2)n3C)cn1 [Example 1k2, 4-[1-[[4-(6-Acetamido-3-pyridyl)-1-methyl-pyrrolo[2,3-b]pyridin-2-yl]methyl]-4-piperidyl]-N,N-dimethyl-benzamide]	64
CN(C)C(=O)c1ccc(C2CCN(Cc3cc4c(-c5cnc(N)c(C#N)n5)ccnc4n3C)CC2)cc1 [Example 1k57, 4-[1-[[4-(5-Amino-6-cyano-pyrazin-2-yl)-1-methyl-pyrrolo[2,3-b]pyridin-2-yl]methyl]-4-piperidyl]-N,N-dimethyl-benzamide]	766
[2H]C([2H])([2H])N(C(=O)c1ccc(C2CCN([C@H](C)c3cc4c(-c5ccc(N)nc5C#N)ccnc4n3C)CC2)c(C)c1)C([2H])([2H])[2H] [Example 1af38, (R)-4-(1-(1-(4-(6-amino-2-cyanopyridin-3-yl)-1-methyl-1H-pyrrolo[2,3-b]pyridin-2-yl)ethyl)-piperidin-4-yl)-3-methyl-N,N-bis(methyl-d3)benzamide]	5270
C[C@@H](c1cc2c(-c3ccc(N)cn3)ccnc2n1C)N1CCC(c2ccc(C(=O)N(C)C)cc2)CC1 [Example 1af15, (S)-4-(1-(1-(4-(5-amino-pyridin-2-yl)-1-methyl-1H-pyrrolo[2,3-b]pyridin-2-yl)-ethyl)piperidin-4-yl)-N,N-dimethylbenzamide]	438
CNC(=O)c1ccc(-c2ccnc3c2cc(CN2CCN(c4ccc(C(=O)N(C)C)cc4)CC2)n3C)cc1 [Example 1j6, 4-[2-[[4-[4-(Dimethylcarbamoyl)phenyl]piperazin-1-yl]methyl]-1-methyl-pyrrolo[2,3-b]pyridin-4-yl]-N-methyl-benzamide]	37200
C[C@H](c1cc2c(-c3ccc(N)nc3C#N)ccnc2n1C)N1CC=C(c2ccc(C(=O)N(C)C)cc2)CC1 [Example 1af23, (R)-4-(1-(1-(4-(6-amino-2-cyanopyridin-3-yl)-1-methyl-1H-pyrrolo[2,3-b]pyridin-2-yl)ethyl)-1,2,3,6-tetrahydropyridin-4-yl)-N,N-dimethylbenzamide]	45.2
COC(=O)CNc1ccc(-c2ccnc3c2cc(CN2CCC(c4ccc(C(=O)N(C)C)cc4)CC2)n3C)cn1 [Example 1k26, Methyl 2-[[5-[2-[[4-[4-(dimethylcarbamoyl)phenyl]-1-piperidyl]methyl]-1-methyl-pyrrolo[2,3-b]pyridin-4-yl]-2-pyridyl]amino]acetate]	16.8
CN(C)C(=O)c1ccc(C2CCN(Cc3cc4c(-c5cnc(N)c(S(C)(=O)=O)c5)ccnc4n3C)CC2)cc1 [Example 1k25, 4-[1-[[4-(6-Amino-5-methylsulfonyl-3-pyridyl)-1-methyl-pyrrolo[2,3-b]pyridin-2-yl]methyl]-4-piperidyl]-N,N-dimethyl-benzamide]	6050

Further lines, results first:

Kd [nM]	SMILES
5280	CNc1ccc(-c2ccnc3c2cc(CN2CCC(c4ccc(C(=O)N(C)C)cc4)CC2)n3CC(C)(C)C)cn1 [Example 1x3, 4-[1-[[1-(2,2-Dimethylpropyl)-4-[6-(methylamino)-3-pyridyl]pyrrolo[2,3-b]pyridin-2-yl]methyl]-4-piperidyl]-N,N-dimethyl-benzamide]
23.2	CNc1ccc(-c2ccnc3c2cc(CN2CCC(c4ccc(C(=O)N(C)C)cc4)CC2=O)n3C)cn1 (stereo in doubt) [Example 1s3, N,N-Dimethyl-4-[(4R)-1-[[1-methyl-4-[6-(methylamino)-3-pyridyl]pyrrolo[2,3-b]pyridin-2-yl]methyl]-2-oxo-4-piperidyl]benzamide]
4240	C[C@@H]1C[C@@H](c2ccc(C(=O)N(C)C)cc2)CCN1Cc1cc2c(-c3ccc(N)nc3C#N)ccnc2n1C (single isomer, unassigned) [Example 1q3]
13.5	CN(C)C(=O)c1ccc(C2CCN(Cc3cc4c(-c5ccc(N)nn5)ccnc4n3C)CC2)cc1 [Example 1k68, 4-[1-[[4-(6-Aminopyridazin-3-yl)-1-methyl-pyrrolo[2,3-b]pyridin-2-yl]methyl]-4-piperidyl]-N,N-dimethyl-benzamide]
1700	CN(C)C(=O)c1ccc(C2CCN(Cc3cc4c(-c5cnc(N)c(-c6nnn[nH]6)c5)ccnc4n3C)CC2)cc1 [Example 1k64, 4-[1-[[4-[6-Amino-5-(2H-tetrazol-5-yl)-3-pyridyl]-1-methyl-pyrrolo[2,3-b]pyridin-2-yl]methyl]-4-piperidyl]-N,N-dimethyl-benzamide]
52.1	CN(C)C(=O)c1ccc(C2CCN(Cc3cc4c(-c5ccc(N)c(C#N)c5)ccnc4n3C)CC2)cc1 [Example 1k80, 4-(1-((4-(4-Amino-3-cyanophenyl)-1-methyl-1H-pyrrolo[2,3-b]pyridin-2-yl)methyl)piperidin-4-yl)-N,N-dimethylbenzamide]
2600	CNc1cc(C)c(-c2ccnc3c2cc(CN2CCN(c4ccc(C(=O)N(C)C)cc4)CC2)n3C)cn1 [Example 1n8, N,N-Dimethyl-4-[4-[[1-methyl-4-[4-methyl-6-(methylamino)-3-pyridyl]pyrrolo[2,3-b]pyridin-2-yl]methyl]piperazin-1-yl]benzamide]
16.5	CN(C)C(=O)c1ccc(C2CCN(Cc3cc4c(-c5ccc(NCCO)nc5)ccnc4n3C)CC2)cc1 [Example 1k61, 4-[1-[[4-[6-(2-Hydroxyethylamino)-3-pyridyl]-1-methyl-pyrrolo[2,3-b]pyridin-2-yl]methyl]-4-piperidyl]-N,N-dimethyl-benzamide]
147	C[C@@H]1CN(c2ccc(C(=O)N(C)C)cc2)CCN1Cc1cc2c(-c3ccc(N)nc3)ccnc2n1C [Example 1n4, 4-[(3R)-4-[[4-(6-amino-3-pyridyl)-1-methyl-pyrrolo[2,3-b]pyridin-2-yl]methyl]-3-methyl-piperazin-1-yl]-N,N-dimethyl-benzamide]
75.1	CN(C)C(=O)c1ccc(C2CCN(Cc3cc4c(-c5ncc(N)cc5F)ccnc4n3C)CC2)cc1 [Example 1k72, 4-[1-[[4-(5-Amino-3-fluoro-2-pyridyl)-1-methyl-pyrrolo[2,3-b]pyridin-2-yl]methyl]-4-piperidyl]-N,N-dimethyl-benzamide]
